Laboratory results taken from patent publication US11814652B2, “Pluripotent stem cell differentiation-promoting agent” (Oriental Yeast Co., Ltd., priority 2018, dated 2023).

Tests used:
iPS cells 201B7 strain [1] = assay: Cell number in ectodermal differentiation-induction after undifferentiated culture with β-NMN (Example 7); assay type: cell-based, human; details: β-NMN 0.25 or 1 mM in culture medium for iPS cells before ectodermal differentiation-induction; 7th or 9th day after seeding; versus no β-NMN
Procedure: The effects of culturing in the presence of β-NMN before induction of differentiation on the ectodermal differentiation-induction of iPS cells was examined. As the iPS cells, the 201B7 strain was used. The iPS cells were cultured in a culture dish in the same manner as in Example 5, and when the confluent reached 70 to 80%, the iPS cells were detached from the culture dish and collected. The collected iPS cells were seeded at 3×10^5 cells/well in a 24-well plate coated with Matrigel (manufactured by Corning Incorporated) according to the manufacturer's protocol. The cells in the 24-well plate were cultured for 1 day in a culture medium prepared by removing β-NMN from the culture medium when culturing in the culture dish and adjusting to have a final concentration of Rock inhibitor of 10 μM. From the 1st day after seeding, the medium was replaced every day with a culture medium for ectodermal differentiation-induction of “STEMdiff Trilineage Differentiation kit” (manufactured by STEMCELL Technologies). The cells of the 7th or 9th day after seeding were sampled and the cell numbers were counted. The time-dependent change in cell number of each sample is shown in FIG. 12(A), and the cell number of each sample on the 9th day after seeding is shown in FIG. 12(B). […]

iPS cells 253G1 strain = assay: Cell number during endodermal differentiation-induction in medium with β-NMN (Example 4); assay type: cell-based; details: endodermal differentiation-inducing medium containing β-NMN 0.1, 0.25 or 1 mM; 7th day after seeding; versus medium not containing β-NMN
Procedure: The effects of β-NMN on the induction of endodermal differentiation of iPS cells were examined. As the iPS cells, the 253G1 strain was used. The iPS cells were seeded in a 24-well plate coated with Matrigel (manufactured by Corning Incorporated) according to the manufacturer's protocol at 3×10^5 cells/well. The cells in the 24-well plate were cultured in a culture medium for iPS cells adjusted to have a final concentration of Rock inhibitor of 10 μM for 1 day. From the 1st day after seeding, the culture medium was replaced with a culture medium prepared by adjusting an endoderm differentiation-inducing culture medium of “STEMdiff Trilineage Differentiation kit” (manufactured by STEMCELL Technologies) to have a final concentration of β-NMN of 0, 0.1, 0.25, or 1 mM for 1 day. The culture medium was replaced with a culture medium prepared by adjusting an endodermal differentiation-inducing culture medium to have final concentrations of both β-NMN and Rock inhibitor of 10 μM only on the 1st day after seeding. Cells of the 7th day after seeding were sampled and the cell numbers were counted. As a result, the number of the cells cultured in the endodermal differentiation-inducing culture medium containing β-NMN was larger than the number of the cells cultured in the medium not containing β-NMN.

iPS cells 201B7 strain [2] = assay: Flow cytometry of Nestin/PAX6 after ectodermal differentiation-induction following undifferentiated culture with β-NMN (Example 7); assay type: cell-based, human; details: β-NMN 0.25 or 1 mM before ectodermal differentiation-induction; 7th or 9th day; versus absence of β-NMN
Procedure: The effects of culturing in the presence of β-NMN before induction of differentiation on the ectodermal differentiation-induction of iPS cells was examined. As the iPS cells, the 201B7 strain was used. The iPS cells were cultured in a culture dish in the same manner as in Example 5, and when the confluent reached 70 to 80%, the iPS cells were detached from the culture dish and collected. The collected iPS cells were seeded at 3×10^5 cells/well in a 24-well plate coated with Matrigel (manufactured by Corning Incorporated) according to the manufacturer's protocol. The cells in the 24-well plate were cultured for 1 day in a culture medium prepared by removing β-NMN from the culture medium when culturing in the culture dish and adjusting to have a final concentration of Rock inhibitor of 10 μM. From the 1st day after seeding, the medium was replaced every day with a culture medium for ectodermal differentiation-induction of “STEMdiff Trilineage Differentiation kit” (manufactured by STEMCELL Technologies). In the same manner as in Example 2, the cells sampled on the 7th or 9th day after seeding were stained with a fluorescently labeled anti-Nestin antibody and a fluorescently labeled anti-PAX6 antibody, and a flow cytometer was used to analyze the fluorescence intensity of the anti-Nestin antibody and the fluorescence intensity of the anti-PAX6 antibody in each sample. […]

SMILES: NC(=O)c1ccc[n+]([C@@H]2O[C@H](COP(=O)([O-])O)[C@@H](O)[C@H]2O)c1 [β-NMN, β-nicotinamide mononucleotide]
- number of the cells (iPS cells 201B7 strain [1]): larger
- number of the cells (iPS cells 253G1 strain): larger
- ratio of Nestin-positive PAX6-positive cells (iPS cells 201B7 strain [2]): no clear difference
